Laboratory results: ChEMBL document CHEMBL5465560, “Selectivity Literature for EUbOPEN Chemogenomic Library” (2024)
One block for each compound: values may come before it.

How the values were obtained:
[1] = biological target: Interleukin-1 receptor-associated kinase 1 (Homo sapiens) (UniProt P51617); assay: Selectivity interaction (Kinase panel (Invitrogen)) EUB0000639a IRAK1; conditions: at 200 nM
[2] = biological target: Aurora kinase B (Homo sapiens, UniProt Q96GD4); assay: Selectivity interaction (ActivX KiNativ screen (kinase selectivity in THP-1 cell lysates)) EUB0000639a AURKB; assay type: subcellular; conditions: lysate, at 0.04 µM
Aurora kinase B, sequence (Q96GD4 whole entry): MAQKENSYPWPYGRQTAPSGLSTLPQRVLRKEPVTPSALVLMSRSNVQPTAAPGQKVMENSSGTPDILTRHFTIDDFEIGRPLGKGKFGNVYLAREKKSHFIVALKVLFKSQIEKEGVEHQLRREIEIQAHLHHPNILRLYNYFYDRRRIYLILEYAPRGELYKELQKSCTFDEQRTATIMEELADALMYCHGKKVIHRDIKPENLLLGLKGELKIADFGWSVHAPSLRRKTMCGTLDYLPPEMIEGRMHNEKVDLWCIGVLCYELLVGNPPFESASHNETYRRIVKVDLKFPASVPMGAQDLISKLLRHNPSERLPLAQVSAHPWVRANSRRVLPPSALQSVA

[3] = biological target: Rho-associated protein kinase 1 (Homo sapiens) (UniProt Q13464); assay: Selectivity interaction (Kinase panel (Z-LYTE Assay)) EUB0001632a ROCK1; conditions: at 10 µM
[4] = biological target: Tyrosine-protein kinase receptor Tie-1 (Homo sapiens) (UniProt P35590); assay: Selectivity interaction (KinomeScan (DiscoverX)) EUB0000699a TIE1; conditions: at 10 µM
Tyrosine-protein kinase receptor Tie-1 (Homo sapiens), sequence (P35590 whole entry): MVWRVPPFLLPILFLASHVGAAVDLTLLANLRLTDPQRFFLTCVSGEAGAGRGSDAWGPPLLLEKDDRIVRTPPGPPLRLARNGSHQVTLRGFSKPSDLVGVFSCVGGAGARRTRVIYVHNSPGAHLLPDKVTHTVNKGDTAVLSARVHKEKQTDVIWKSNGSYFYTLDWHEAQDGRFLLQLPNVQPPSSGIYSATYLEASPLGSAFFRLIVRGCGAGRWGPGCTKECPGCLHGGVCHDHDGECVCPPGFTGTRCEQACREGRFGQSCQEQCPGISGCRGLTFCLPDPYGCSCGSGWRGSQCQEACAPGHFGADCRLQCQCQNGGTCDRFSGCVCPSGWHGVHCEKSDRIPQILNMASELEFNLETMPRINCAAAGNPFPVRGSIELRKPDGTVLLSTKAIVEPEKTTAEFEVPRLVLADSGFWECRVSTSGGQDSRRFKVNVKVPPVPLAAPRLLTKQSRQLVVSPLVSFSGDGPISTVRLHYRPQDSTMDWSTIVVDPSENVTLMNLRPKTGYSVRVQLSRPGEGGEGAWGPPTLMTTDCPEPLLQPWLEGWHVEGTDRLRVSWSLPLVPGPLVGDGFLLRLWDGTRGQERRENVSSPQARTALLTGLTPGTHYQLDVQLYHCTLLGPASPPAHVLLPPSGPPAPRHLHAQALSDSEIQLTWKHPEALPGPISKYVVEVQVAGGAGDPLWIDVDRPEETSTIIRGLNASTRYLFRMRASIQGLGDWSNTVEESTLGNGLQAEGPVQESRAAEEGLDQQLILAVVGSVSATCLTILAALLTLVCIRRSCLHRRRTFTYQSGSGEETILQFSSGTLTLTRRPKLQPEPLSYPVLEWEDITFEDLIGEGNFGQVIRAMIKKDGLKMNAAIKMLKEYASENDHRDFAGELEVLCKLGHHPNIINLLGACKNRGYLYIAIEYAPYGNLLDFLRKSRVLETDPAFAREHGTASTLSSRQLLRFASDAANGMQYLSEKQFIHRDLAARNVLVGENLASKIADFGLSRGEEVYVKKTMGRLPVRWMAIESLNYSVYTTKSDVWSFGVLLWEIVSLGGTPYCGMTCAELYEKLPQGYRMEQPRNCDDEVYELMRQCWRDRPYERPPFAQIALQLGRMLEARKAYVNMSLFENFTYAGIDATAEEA

[5] = biological target: T1, Tyrosine-protein kinase Tec (Homo sapiens) (UniProt P42680); assay: Selectivity interaction (KinomeScan (DiscoverX)) EUB0000229b TEC; conditions: at 10 µM
T1 sequence (whole entry): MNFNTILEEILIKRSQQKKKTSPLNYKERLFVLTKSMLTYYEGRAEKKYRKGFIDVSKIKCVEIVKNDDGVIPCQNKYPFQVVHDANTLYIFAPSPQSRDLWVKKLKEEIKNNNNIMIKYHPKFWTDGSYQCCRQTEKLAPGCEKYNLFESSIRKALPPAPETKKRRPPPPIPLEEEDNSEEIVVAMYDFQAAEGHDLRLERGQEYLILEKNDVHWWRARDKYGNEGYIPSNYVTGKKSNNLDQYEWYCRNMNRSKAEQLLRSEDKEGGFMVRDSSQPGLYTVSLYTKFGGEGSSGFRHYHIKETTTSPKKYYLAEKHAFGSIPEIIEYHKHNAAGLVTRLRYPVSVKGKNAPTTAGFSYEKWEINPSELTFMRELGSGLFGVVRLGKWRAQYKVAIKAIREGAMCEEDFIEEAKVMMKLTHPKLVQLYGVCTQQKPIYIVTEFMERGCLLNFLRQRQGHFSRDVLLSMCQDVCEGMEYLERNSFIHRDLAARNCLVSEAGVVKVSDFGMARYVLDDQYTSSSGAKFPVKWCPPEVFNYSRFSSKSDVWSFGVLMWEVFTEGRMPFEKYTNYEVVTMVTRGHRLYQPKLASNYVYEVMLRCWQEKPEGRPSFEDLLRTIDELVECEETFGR

[6] = biological target: Serine/threonine-protein kinase 10 (Homo sapiens) (UniProt O94804); assay: Selectivity interaction (Upstate Kinase Profiler service (Millipore)) EUB0000056c STK10; conditions: at 1 µM
Serine/threonine-protein kinase 10 (Homo sapiens), sequence (O94804 whole entry, looked up): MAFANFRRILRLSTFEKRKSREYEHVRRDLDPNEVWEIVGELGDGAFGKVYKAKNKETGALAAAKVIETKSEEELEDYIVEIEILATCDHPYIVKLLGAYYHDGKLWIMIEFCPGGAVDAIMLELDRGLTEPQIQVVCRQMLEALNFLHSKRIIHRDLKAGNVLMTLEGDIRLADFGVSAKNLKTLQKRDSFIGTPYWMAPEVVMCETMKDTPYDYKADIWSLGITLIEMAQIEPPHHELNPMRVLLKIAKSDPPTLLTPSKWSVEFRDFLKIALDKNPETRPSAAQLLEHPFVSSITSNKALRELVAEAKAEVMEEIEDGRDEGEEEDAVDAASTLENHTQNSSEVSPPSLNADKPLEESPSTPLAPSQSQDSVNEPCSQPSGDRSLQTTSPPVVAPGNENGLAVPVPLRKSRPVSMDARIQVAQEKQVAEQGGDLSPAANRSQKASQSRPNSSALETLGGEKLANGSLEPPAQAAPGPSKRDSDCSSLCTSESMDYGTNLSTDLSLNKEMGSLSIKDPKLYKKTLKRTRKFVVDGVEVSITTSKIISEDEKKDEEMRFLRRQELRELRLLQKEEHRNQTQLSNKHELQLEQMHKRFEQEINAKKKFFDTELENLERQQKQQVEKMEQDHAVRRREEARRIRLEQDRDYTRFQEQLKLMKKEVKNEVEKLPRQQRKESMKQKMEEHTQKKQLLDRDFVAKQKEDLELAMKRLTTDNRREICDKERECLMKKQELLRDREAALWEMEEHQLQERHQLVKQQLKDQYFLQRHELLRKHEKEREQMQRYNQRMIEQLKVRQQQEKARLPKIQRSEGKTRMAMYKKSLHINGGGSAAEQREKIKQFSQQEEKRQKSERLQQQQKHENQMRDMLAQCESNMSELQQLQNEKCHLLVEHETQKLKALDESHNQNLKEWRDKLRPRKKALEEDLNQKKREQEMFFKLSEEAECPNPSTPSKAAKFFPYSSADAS

[7] = biological target: Mitogen-activated protein kinase kinase kinase kinase 4 (Homo sapiens, UniProt O95819); assay: Selectivity interaction (KinomeScan (DiscoverX)) EUB0000655a MAP4K4; conditions: at 10 µM
Mitogen-activated protein kinase kinase kinase kinase 4, sequence (O95819 2-1239 limits assumed): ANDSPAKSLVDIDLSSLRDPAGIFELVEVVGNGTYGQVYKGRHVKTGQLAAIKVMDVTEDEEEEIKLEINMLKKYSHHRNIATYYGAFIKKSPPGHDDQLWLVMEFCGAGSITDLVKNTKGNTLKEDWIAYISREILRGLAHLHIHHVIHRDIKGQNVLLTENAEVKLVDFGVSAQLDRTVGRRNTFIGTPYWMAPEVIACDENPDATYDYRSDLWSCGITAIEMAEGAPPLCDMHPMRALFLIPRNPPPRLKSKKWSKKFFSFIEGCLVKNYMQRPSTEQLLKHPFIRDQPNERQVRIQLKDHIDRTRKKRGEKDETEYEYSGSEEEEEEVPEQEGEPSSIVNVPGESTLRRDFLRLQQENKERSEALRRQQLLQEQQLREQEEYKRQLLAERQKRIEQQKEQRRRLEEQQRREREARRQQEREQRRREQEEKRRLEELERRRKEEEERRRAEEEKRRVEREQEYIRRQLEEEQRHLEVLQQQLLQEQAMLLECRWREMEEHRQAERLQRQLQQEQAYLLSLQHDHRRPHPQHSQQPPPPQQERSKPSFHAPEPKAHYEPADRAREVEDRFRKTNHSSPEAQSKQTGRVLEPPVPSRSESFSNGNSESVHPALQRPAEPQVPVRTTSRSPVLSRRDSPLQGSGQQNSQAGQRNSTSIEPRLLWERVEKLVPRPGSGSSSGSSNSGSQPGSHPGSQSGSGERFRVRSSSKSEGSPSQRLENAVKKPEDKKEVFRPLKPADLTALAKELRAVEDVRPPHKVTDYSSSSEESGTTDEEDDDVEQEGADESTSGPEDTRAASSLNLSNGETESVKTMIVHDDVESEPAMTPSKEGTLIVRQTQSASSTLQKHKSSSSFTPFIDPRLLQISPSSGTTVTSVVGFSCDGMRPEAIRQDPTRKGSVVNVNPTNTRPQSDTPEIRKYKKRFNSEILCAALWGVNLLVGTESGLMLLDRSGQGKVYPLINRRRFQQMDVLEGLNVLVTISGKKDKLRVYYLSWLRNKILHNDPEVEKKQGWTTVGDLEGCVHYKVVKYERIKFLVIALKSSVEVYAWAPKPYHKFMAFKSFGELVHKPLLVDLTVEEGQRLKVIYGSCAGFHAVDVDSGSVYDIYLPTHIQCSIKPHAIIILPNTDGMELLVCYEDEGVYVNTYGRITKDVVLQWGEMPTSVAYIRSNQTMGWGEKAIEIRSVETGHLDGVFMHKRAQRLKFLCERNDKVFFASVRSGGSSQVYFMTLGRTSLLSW

[8] = biological target: Tyrosine-protein kinase Fes/Fps (Homo sapiens) (UniProt P07332); assay: Selectivity interaction (KinomeScan (DiscoverX)) EUB0000618a FES; conditions: at 10 µM
[9] = biological target: T2, Serine/threonine-protein kinase VRK1 (Homo sapiens) (UniProt Q99986); assay: Selectivity interaction (Kinase panel (DSF assay)) EUB0001559a VRK1
T2 sequence (whole entry): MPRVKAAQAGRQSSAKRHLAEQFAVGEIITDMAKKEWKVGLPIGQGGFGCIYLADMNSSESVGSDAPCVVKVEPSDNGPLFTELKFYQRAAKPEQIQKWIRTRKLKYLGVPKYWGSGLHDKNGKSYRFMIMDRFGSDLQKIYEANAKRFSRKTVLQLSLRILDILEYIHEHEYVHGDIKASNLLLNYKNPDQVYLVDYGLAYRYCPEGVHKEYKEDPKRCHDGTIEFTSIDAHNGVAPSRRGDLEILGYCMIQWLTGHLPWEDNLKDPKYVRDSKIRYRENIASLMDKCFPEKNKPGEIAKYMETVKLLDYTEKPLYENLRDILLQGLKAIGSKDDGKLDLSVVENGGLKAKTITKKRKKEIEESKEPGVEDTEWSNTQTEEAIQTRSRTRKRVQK

[10] = biological target: Mitogen-activated protein kinase 14 (Homo sapiens, UniProt Q16539); assay: Selectivity interaction (Kinase panel (KiNativ target engagement assay in Jurkat cells)) EUB0001635a MAPK14; assay type: cell-based; conditions: Selectivity number of off-targets 0.0, Selectivity number of targets 233.0, Source Knowledge https://www.sciencedirect.com/science/article/pii/S2451945619300674?via%3Dihub, at 1 µM
Mitogen-activated protein kinase 14, sequence (Q16539 whole entry): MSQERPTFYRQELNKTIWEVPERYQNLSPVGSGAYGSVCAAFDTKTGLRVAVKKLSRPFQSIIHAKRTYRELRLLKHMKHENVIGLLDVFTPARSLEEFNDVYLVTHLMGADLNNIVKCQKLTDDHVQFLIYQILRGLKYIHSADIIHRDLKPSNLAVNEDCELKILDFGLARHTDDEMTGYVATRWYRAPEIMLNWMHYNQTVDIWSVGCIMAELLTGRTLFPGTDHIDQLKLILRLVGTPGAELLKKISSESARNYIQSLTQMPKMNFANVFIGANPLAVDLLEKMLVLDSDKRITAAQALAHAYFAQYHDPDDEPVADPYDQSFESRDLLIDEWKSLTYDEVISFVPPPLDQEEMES

[11] = biological target: T3, Serine/threonine-protein kinase ULK1 (Homo sapiens) (UniProt O75385); assay: Selectivity interaction (KinomeScan (DiscoverX)) EUB0000666a ULK1; conditions: at 10 µM
T3 sequence (whole entry): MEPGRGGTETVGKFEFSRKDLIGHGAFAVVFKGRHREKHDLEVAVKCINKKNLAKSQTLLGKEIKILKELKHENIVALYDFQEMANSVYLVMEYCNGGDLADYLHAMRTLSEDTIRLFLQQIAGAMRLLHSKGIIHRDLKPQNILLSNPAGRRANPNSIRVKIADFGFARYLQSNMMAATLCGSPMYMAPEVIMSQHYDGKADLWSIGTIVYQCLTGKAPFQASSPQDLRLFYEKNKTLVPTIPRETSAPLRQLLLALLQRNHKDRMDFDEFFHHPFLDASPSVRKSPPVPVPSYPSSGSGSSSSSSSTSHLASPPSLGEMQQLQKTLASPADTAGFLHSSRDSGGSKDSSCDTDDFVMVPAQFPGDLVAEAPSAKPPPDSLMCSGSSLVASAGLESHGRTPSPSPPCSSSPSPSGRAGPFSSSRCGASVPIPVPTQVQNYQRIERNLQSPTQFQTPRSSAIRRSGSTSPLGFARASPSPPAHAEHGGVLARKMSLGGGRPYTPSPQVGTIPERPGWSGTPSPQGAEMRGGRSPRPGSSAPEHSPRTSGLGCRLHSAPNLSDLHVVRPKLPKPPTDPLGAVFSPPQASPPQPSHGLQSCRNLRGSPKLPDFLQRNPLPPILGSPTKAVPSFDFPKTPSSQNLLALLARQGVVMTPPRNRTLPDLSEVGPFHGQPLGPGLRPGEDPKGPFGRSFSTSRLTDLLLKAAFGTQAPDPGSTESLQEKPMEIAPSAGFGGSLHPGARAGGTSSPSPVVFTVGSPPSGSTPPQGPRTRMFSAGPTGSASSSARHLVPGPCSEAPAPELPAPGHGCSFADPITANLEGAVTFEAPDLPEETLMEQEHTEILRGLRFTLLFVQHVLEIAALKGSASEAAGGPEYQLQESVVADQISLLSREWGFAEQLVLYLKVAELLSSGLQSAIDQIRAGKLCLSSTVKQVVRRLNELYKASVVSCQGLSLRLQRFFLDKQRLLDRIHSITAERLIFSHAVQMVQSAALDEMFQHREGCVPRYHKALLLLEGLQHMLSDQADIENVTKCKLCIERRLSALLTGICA

Interleukin-1 receptor-associated kinase 1 (Homo sapiens), sequence (P51617 whole entry, looked up): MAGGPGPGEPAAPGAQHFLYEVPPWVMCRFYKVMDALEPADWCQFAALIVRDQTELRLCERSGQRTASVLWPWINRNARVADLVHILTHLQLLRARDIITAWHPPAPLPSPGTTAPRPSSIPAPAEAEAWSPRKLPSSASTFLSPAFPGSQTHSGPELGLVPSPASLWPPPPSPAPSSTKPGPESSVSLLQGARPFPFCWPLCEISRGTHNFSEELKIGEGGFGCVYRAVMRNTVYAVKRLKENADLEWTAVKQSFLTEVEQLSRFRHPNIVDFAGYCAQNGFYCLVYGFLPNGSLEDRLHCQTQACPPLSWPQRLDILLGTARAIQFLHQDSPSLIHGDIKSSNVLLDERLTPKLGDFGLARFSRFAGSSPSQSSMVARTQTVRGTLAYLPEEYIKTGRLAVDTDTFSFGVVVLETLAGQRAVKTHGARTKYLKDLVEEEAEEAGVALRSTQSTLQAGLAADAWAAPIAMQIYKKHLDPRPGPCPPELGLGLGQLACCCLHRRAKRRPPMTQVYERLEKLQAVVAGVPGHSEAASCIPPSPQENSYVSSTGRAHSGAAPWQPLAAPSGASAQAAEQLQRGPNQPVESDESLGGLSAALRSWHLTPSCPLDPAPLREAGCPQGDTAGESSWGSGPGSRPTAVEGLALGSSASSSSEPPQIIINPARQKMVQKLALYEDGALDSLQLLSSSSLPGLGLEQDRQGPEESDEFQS

SMILES: COc1cc(N(C)c2ccnc3ccc(C(F)(F)F)cc23)cc(OC)c1OC
% binding [5]: 98%

SMILES: CN(C)CCOc1ccc(-c2nc(-c3ccncc3)c(-c3ccc4c(c3)CC/C4=N\O)[nH]2)cc1
% of control [7]: 27%

SMILES: O[C@H]1CC[C@H](Nc2ncc3nc(Nc4c(F)cc(F)cc4F)n([C@H]4CCOC4)c3n2)CC1
% of control [8]: 100%

SMILES: C=CC(=O)Nc1ccc(C(=O)Nc2[nH]nc3c2CN(C(=O)N[C@H](CN(C)C)c2ccccc2)C3(C)C)cc1
% of engagement [10]: -12.8%

SMILES: O=C(NOC[C@H](O)CO)c1ccc(F)c(F)c1Nc1ccc(I)cc1F
% of control [11]: 100%

Now from value to compound:

% of inhibition [1]: 91.4%
% of inhibition [2]: -1.3%
SMILES: CC[C@@H]1[C@H](F)C(=O)N[C@@H]1COc1nccc2cc(C(N)=O)c(OC)cc12 [ZIMLOVISERTIB]

% of control [3]: -2.74%
SMILES: Cn1cc(-n2cnc3c(NCc4nc5cc(Cl)c(Cl)cc5[nH]4)nc(N4CCOCC4)nc32)cn1

% of control [4]: 12%
SMILES: CCN(CC)CCCCNc1ncc2cc(-c3cc(OC)cc(OC)c3)c(NC(=O)NC(C)(C)C)nc2n1

% of inhibition [6]: 47%
SMILES: Cc1ccc(-c2ccc3c(ccc4sc5c(c43)NC[C@@H](C)NC5=O)n2)cn1

dTM [9]: 0.2 K
SMILES: CN(C(=O)c1cnn2cccnc12)c1cc2c(cc1N1CCOCC1)C(=O)N(C[C@@H](F)C(C)(C)O)C2
